These are literature values, as cited in patent US12551473B2, “Compositions and methods for increasing athletic performance” (VDF Futureceuticals, Inc., priority 2015, dated 2026).

The test system of data set [1] is systolic blood pressure. Particulars: 5.5 mmol/day, acute (1 day) and chronic (6 day), during cycling in healthy young men.
The test system of data set [2] is skin blood flow. Particulars: during cycling exercise at 55% VO2max.

Consider `O=[N+]([O-])O` [nitrate], for which the “reduced systolic blood pressure (mean)” value in data set [1] is 6 mmHg.

With `CN(C)C(=O)Oc1ccc[n+](C)c1` [pyridostigmine], the skin blood flow result in data set [2] was “reduces”.
